Test results as given in patent publication EP0397859A1, “PYRAZINE DERIVATIVES AND MEDICINAL PREPARATION CONTAINING SAME” (TERUMO KABUSHIKI KAISHA, priority 1987, dated 1989).
Like-named read-outs stand apart in the source and are kept apart here.

Tests used:
[1] = test system: platelet aggregation; experiment: Platelet aggregation-inhibiting action in rabbit platelet-rich plasma (aggregometer); type: cell-based; settings: Oryctolagus cuniculus, 0.05 h, rabbit PRP, 37°C, 3 min incubation
Description: Blood was drawn from the carotid artery of a rabbit using a syringe containing 1/10 volume of a 3.8% solution of sodium citrate. The blood was centrifuged to obtain platelet-rich plasma (PRP: 5 x 10^5 cells/µl).
In a cuvette were placed 200 µl of said PRP and 25 µl of a physiological saline solution. The cuvette was set on an aggregometer and warmed at 37°C for 2 min. Into the cuvette was then added 1.25 µl of an ethanol solution of a pyrazine derivative to be tested. After incubated for 3 min., a solution of a platelet-aggregation inducer, arachidonic acid or collagen, was added thereto. Measurements were made for platelet aggregation using an aggregometer (Hematracer IV; Niko Biosciences K.K.). […] Acetylsalicylic acid was used as a comparison.
The 50% inhibitory concentration as shown in the table means the concentration of the solution of a pyrazine derivative required for inhibiting the aggregation of platelets by introducing said pyrazine derivative when the platelet aggregatiqn in the absence of any pyrazine derivative of the invention is taken as 100%.

[2] = target: T1, cyclooxygenase (Oryctolagus cuniculus, UniProt O97554); experiment: Cyclooxygenase-inhibiting activity, washed platelets as enzyme source, 14C-arachidonic acid, TLC radiochromatogram; type: biochemical; settings: washed rabbit platelets, 37°C for 3 min; sum of radioactivities of prostaglandin E2, prostaglandin D2 and HHT; read-out: 50% inhibitory concentration (mole)
T1 construct: The washed platelets thus produced were used as an enzyme source for cyclooxygenase; from tissue; host or cells: washed platelets from rabbit carotid artery blood
T1 sequence (O97554 31-606): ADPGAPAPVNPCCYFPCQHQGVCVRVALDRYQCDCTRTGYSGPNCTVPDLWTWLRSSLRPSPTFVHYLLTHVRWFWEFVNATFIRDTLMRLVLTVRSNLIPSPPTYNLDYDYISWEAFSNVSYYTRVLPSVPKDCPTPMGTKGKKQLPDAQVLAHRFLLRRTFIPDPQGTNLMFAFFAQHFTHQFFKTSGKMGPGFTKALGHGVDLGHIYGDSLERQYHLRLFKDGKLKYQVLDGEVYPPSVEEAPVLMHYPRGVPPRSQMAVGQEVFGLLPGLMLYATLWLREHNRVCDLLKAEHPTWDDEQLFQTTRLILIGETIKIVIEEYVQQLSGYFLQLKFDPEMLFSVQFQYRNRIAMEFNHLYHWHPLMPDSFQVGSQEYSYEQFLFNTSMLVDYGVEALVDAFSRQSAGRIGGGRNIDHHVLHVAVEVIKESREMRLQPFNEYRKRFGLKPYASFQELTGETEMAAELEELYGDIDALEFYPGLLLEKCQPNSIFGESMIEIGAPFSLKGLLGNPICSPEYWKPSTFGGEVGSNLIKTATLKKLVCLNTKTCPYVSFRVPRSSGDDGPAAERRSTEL
Description: In a centrifuge tube was collected 9 volumes of blood from the carotid artery of a rabbit per volume of a 3.8% solution of sodium citric acid contained therein using a canula. Platelet-rich plasma was obtained by centrifugation. To the platelet-rich plasma was added a 77 mM solution of EDTA in a volume of 1/10 per volume of said plasma. After mixing thoroughly, the mixture was subjected to centrifugation at 2500 r.p.m. at room temperature for 10 min. The supernatant was discarded, and the platelets were suspended in approximately 3 ml of a wash (134 mM of sodium chloride, 15 mM of trisaminomethane, 1 mM of EDTA and 5 mM of D-glucose dissolved in distilled water with a pH adjusted to 7.4 with 1N-hydrogen chloride), and the suspension was centrifuged at 2000 rpm at room temperature for 10 min. The supernatant was discarded, and the precipitated platelets were suspended in a 1/15 M phosphate buffer solution at pH 8.0 to adjust the number of the platelets to 6-8 x 10^5 cells/µl.
The washed platelets thus produced were used as an enzyme source for cyclooxygenase. […]
Development was made with a developing solvent (chloroform/methanol/acetic acid/water = 90:8:1:0.8) by approximately 18 cm, and then the inhibiting activity was determined by measuring sum of the radioactivities of prostaglandin E2' prostaglandin D2 and HHT by a radiochromatogram scanner.

[3] = aggregation caused by arachidonic acid (80 µM), read-out: 50% aggregation-inhibitory concentration (mole) Arachidonic acid
[4] = aggregation caused by collagen (15 µg/ml), read-out: 50% aggregation-inhibitory concentration (mole) Collagen

Compound	IC50 [1, 3]	IC50 [1, 4]	IC50 [2]
Cc1cnc(-c2ccc(C#N)cc2)c(-c2ccc(C#N)cc2)n1 [X=-CN, R2=H, R3=-CH3]	1 µM	1 µM	–
Clc1ccc(Cc2cnc(-c3ccccc3)c(-c3ccccc3)n2)cc1 [Example 7, 2,3-diphenyl-5-(p-chlorobenzyl)pyrazine]	82 µM	34 µM	–
CN(C)c1ccc(Cc2cnc(-c3ccccc3)c(-c3ccccc3)n2)cc1 [Example 9, 2,3-diphenyl-5-(p-dimethylaminobenzyl)pyrazine]	84 µM	74 µM	–
COc1ccc(-c2ncc(C(=O)O)nc2-c2ccc(OC)cc2)cc1 [Example 14, 2,3-bis(p-methoxyphenyl)-pyrazine-5-carboxylic acid]	0.26 µM	5 µM	–
CCc1ncc(-c2ccccc2)nc1-c1ccccc1 [Example 2, 2-ethyl-3,5-diphenylpyrazine]	6 µM	19 µM	–
COc1ccc(-c2nc(Cl)c(Cl)nc2-c2ccc(OC)cc2)cc1 [Example 11, 2,3-bis(p-methoxyphenyl)-5,6-dichloropyrazine]	0.014 µM	0.22 µM	–
COc1ccc(-c2ncc(Cl)nc2-c2ccc(OC)cc2)cc1 [Example 12, 2,3-bis(p-methoxyphenyl)-5-chloropyrazine]	0.0038 µM	0.0098 µM	–
Clc1ccccc1Cc1cnc(-c2ccccc2)c(-c2ccccc2)n1 [Example 5, 2,3-diphenyl-5-(o-chlorobenzyl)pyrazine]	4.4 µM	36 µM	–
Clc1cccc(Cc2cnc(-c3ccccc3)c(-c3ccccc3)n2)c1 [Example 6, 2,3-diphenyl-5-(m-chlorobenzyl)pyrazine]	4.5 µM	44 µM	–
COc1ccc(-c2ncc(C#N)nc2-c2ccc(OC)cc2)cc1 [Example 13, 2,3-bis(p-methoxyphenyl)-5-cyanopyrazine]	0.024 µM	0.015 µM	5 µM
CCc1nc(CC)c(-c2ccccc2)nc1-c1ccccc1 [Example 1, 2,6-diethyl-3,5-diphenylpyrazine]	1.7 µM	0.39 µM	–
COc1ccc(-c2nc3c(nc2-c2ccc(OC)cc2)CCCC3)cc1 [Example 3, 2,3-bis(p-methoxyphenyl)-5,6,7,8-tetrahydroquinoxaline]	0.015 µM	0.024 µM	–
COC(=O)c1cnc(-c2ccc(OC)cc2)c(-c2ccc(OC)cc2)n1 [Example 15]	0.003 µM	0.13 µM	–
Brc1ccc(Cc2cnc(-c3ccccc3)c(-c3ccccc3)n2)cc1 [Example 8, 2,3-diphenyl-5-(p-bromobenzyl)pyrazine]	16 µM	100 µM	–
c1ccc(-c2ncc(Cc3cccc4ccccc34)nc2-c2ccccc2)cc1 [Example 10, 2,3-diphenyl-5-(l-naphthyl)methylpyrazine]	43 µM	31 µM	–
COc1ccc(-c2nc3ccccc3nc2-c2ccc(OC)cc2)cc1 [Example 4, 2,3-bis(p-methoxyphenyl)quinoxaline]	0.038 µM	0.0098 µM	–
